The values below come from article PMC10907374, “G2019S selective LRRK2 kinase inhibitor abrogates mitochondrial DNA damage” (NPJ Parkinson's Disease, 2024).

Where “and” joins values, the source holds several entries; their conditions need not be identical. Equal values may be shown once. Entries after “also recorded” stand apart in the source; their conditions may differ. Read-outs that look alike come from different tables or passages of the source.

For assay [1], the system named is heterozygous G2019S LRRK2 PD patient-derived LCLs. As to the kind of experiment: Mito DNADX mtDNA damage and mtDNA copy number in G2019S LRRK2 PD patient-derived LCLs. The format is cell-based, human. To be noted: 10 and 100 nM, 2 h. Here is the method:
(§1) PD patient G2019S LRRK2 (n = 2) and healthy subject control (n = 2)-derived LCLs were obtained from the NINDS Coriell biorepository (ID numbers are ND00011, ND00264, ND01618, ND02559). There was not a statistical difference in the ages between the PD patient and healthy control subjects (p = 0.92). LCLs were cultured at 37 °C, 5% CO2, in RPMI-1640 (Sigma-Aldrich, R8758), 15% heat-inactivated fetal bovine serum (VWR Seradigm, 97068-091) and 0.5% Penicillin/Streptomycin (Corning, 30-002-CI). […] All in vitro experiments were repeated at least three times from distinct samples.
(§2) The tool compound EB-42168 was discovered as part of a small molecule discovery program aimed at identifying LRRK2 kinase inhibitors that are selective for the pathogenic G2019S LRRK2 variant. […] MLi‐2 inhibits WT LRRK2 ~1000‐fold more than EB‐42168[20].
(§3) Cells were collected and the nuclei and mitochondria were isolated as previously described. DNA was extracted from LRRK2-WT and G2019S-LRRK2 cells, and wild-type and LRRK2^G2019S/G2019S KI cells using QuickGene DNA Whole Blood Kit L (Autogen, fk-dbl). PD patient LRRK2 G2019S and healthy subject control-derived LCL DNA was extracted using the QuickGene DNA Tissue Kit L (Autogen, fk-dtl), utilizing a semi-automated system (Autogen, QuickGene-610L). For the Autogen system, the pellet was resuspended in 2 ml of 1X PBS, and the standard manufacturer’s protocol was conducted as if the cell suspension was whole blood. DNA was eluted with EDTA-free buffer, and quality was assessed using a Spectradrop microvolume microplate (Molecular Devices). Double-stranded DNA was quantified using Quant-iT Picogreen dsDNA assay (Thermo Fisher) as previously described.
(§4) DNA damage in the mitochondrial genome was measured utilizing Mito DNADX, an assay that we recently developed and described, currently the most robust way of measuring damage in mtDNA[39],[82]. The Mito DNADX assay combines optimized polymerase chain reaction (PCR) parameters using a high-fidelity DNA polymerase and a fluorescent dye that binds to double-stranded DNA that permits the real-time quantification of DNA damage in distinct loci in a 96-well platform. The premise of the Mito DNADX assay involves amplification of a specific mitochondrial PCR fragment in which less PCR product will be amplified when mtDNA damage or lesions block the ability of the DNA polymerase to replicate. As such, mtDNA damage or mtDNA repair intermediates that slow down or impair DNA polymerase progression will be detected. […] Briefly, 15 ng of DNA was used to amplify long or short amplicons of the mitochondrial genome (as determined by primer sets). […] Average lesion frequency is calculated as described. […] Each biological DNA sample was analyzed in technical triplicate. […]

Assay [2] concerns healthy control LCLs. As to the kind of experiment: Mito DNADX mtDNA damage and mtDNA copy number in healthy control-derived LCLs. To be noted: 10 and 100 nM, 2 h. The format is cell-based, human. As for the experimental part: as §1, §2, §3, §4
Assay [3] has as its system G2019S LRRK2. To be noted: cited from earlier work.
In assay [4] the test system is LRRK2 in heterozygous G2019S LRRK2 PD patient-derived LCLs. Put plainly: LRRK2 pSer935 western immunoblot in heterozygous G2019S LRRK2 PD patient-derived LCLs. The assay is classed as cell-based, human. Particulars: for decrease in LRRK2 pSer935 levels: heterozygous G2019S LRRK2 PD LCLs. As for the experimental part: PD patient G2019S LRRK2 (n = 2) and healthy subject control (n = 2)-derived LCLs were obtained from the NINDS Coriell biorepository (ID numbers are ND00011, ND00264, ND01618, ND02559). […] LCLs were cultured at 37 °C, 5% CO2, in RPMI-1640 (Sigma-Aldrich, R8758), 15% heat-inactivated fetal bovine serum (VWR Seradigm, 97068-091) and 0.5% Penicillin/Streptomycin (Corning, 30-002-CI). […] All in vitro experiments were repeated at least three times from distinct samples.
For LRRK2-WT or G2019S-LRRK2, ~1.5 million cells were pelleted and resuspended in 75 μl of lysis buffer [(RIPA Buffer (Sigma-Aldrich, R0278-50ML), protease inhibitor cocktail (Sigma-Aldrich, P8340), and Halt phosphatase inhibitor cocktail (Thermo Fisher, 78420)]. For LCLs, five million cells were pelleted and resuspended in 100 µl of lysis buffer. For both types of cells lysates were centrifuged at 10,000 × g after a 10 min incubation on ice, and the supernatant was collected. Protein was quantified using the DC protein assay (Bio-Rad, 5000112). In total, 50 μg of protein was loaded for HEK293 LRRK2-WT or G2019S-LRRK2 cells. Due to the differing endogenous LRRK2 levels, 40 µg of ND02559, 60 µg of ND00264, or 100 µg of ND00011 and ND01618 of protein sample was loaded. Protein samples were incubated at 100 °C for 5 min with NuPAGE Sample loading dye (Thermo Fisher, NP0007) and dithiothreitol as reducing agent. After 4–20% SDS-PAGE, the blots were blocked in 5% w/v nonfat dry milk in 1X PBST (0.05% Tween 20). For our investigations, the following primary antibodies were used: mouse anti-LRRK2 N241a (Antibodies INC, 75-253, 1:5000 for HEK293 cells and 1:2000 for LCLs), rabbit anti-LRRK2 pS935 (Abcam, ab133450, 1:10,000 for HEK293 cells and 1:2000 for LCLs), mouse anti-β-actin (Novus, 8H10D10, 1:10,000), and rabbit anti-LRRK2 pS1292 (Abcam, ab203181, 1:500). The blots were then probed with fluorescent-labeled secondary antibodies, IRDye donkey anti-mouse and anti-rabbit at 1:10,000 (LI-COR, 926-32212, 926-68072), and scanned using an Odyssey Imaging scanner (LI-COR). Fluorescence intensities were quantified using ImageStudio Lite software (LI-COR), and the signal from the protein of interest was normalized to the fluorescence intensity of either LRRK2 or β-actin. Values were averaged from at least three technical replicates within a cell line, or two biological replicates (two healthy control lines and two PD LCLs). All blots were derived from the same experiment and processed in parallel.
In general terms: In western blotting, separated proteins are transferred to a membrane and probed.

The test system of assay [5] is heterozygous G2019S LRRK2 PD patient-derived LCLs. Further details: method as in PMID 33057100. Particulars: acute treatment (1.5 h) ref 49; cited from earlier work.

In the case of `CC1=C(C(=O)Nc2ccc3[nH]nc(-c4ccnc(N5CCOCC5)c4)c3c2)C(C)(C)n2nnnc2N1C` [EB-42168], the mtDNA copy number result in assay [1] and in assay [2] was “No differences” throughout. Also, the mtDNA damage entry in assay [1] is reported as “restored to control levels”; in assay [2], “without an effect”. Also, in assay [3], the “fold more potent inhibition of G2019S LRRK2 than wild-type LRRK2” value is reported as 100 fold. Further, the “decrease in LRRK2 pSer935 levels” value in assay [4] (10 nM, 2 h) was ~ 30% and 25%; in assay [4] (100 nM, 2 h) it was roughly 40%. In assay [4] (human PD patient-derived cells heterozygous for G2019S LRRK2, concentration not given), the “decrease of LRRK2 pSer935” value is listed as “about 40%”.
As to `C[C@@H]1CN(c2cc(-c3n[nH]c4ccc(OC5(C)CC5)cc34)ncn2)C[C@H](C)O1` [MLi-2, reference compound], the mtDNA copy number result in assay [1] and in assay [2] was “No differences” in each case. In addition, the values for the mtDNA damage result in assay [1], in assay [2] and in assay [5] were “reversed mtDNA damage”, “no effect” and “restored mtDNA damage to healthy control levels”, respectively. The “potency in recombinant cell lines expressing WT-LRRK2 or G2019S-LRRK2” value in assay [3] is recorded as “equipotent”. Besides, the “effect on LRRK2 pSer935 (in words)” value in assay [4] (G2019S LRRK2 PD LCLs, 10 and 100 nM, 2 h) is “almost completely; also recorded: almost complete”.
